What was measured:
[1] = target: T1, bacteriophage T4 packaging motor (gp17 on emptied T4 heads) (Tequatrovirus T4, UniProt P17312); experiment: optical tweezers single-DNA grip/slip assay with solution exchange; type: binding; details: 0.5 mM ADP, 5 pN force; 50 mM Tris-HCl pH 7.5, 5 mM MgCl2, 80 mM NaCl
T1 construct: gene 17; N-terminally His-tagged recombinant gp17 from E. coli, assembled as pentamer on emptied heads (10am13am mutant phage) that carry the gp20 portal; with Portal protein

[2] = target: T1, bacteriophage T4 packaging motor (gp17 on emptied T4 heads); experiment: optical tweezers single-DNA packaging assay; type: biochemical; details: ATP-driven DNA translocation; 50 mM Tris-HCl pH 7.5, 5 mM MgCl2, 80 mM NaCl

T1 sequence (P17312 whole entry): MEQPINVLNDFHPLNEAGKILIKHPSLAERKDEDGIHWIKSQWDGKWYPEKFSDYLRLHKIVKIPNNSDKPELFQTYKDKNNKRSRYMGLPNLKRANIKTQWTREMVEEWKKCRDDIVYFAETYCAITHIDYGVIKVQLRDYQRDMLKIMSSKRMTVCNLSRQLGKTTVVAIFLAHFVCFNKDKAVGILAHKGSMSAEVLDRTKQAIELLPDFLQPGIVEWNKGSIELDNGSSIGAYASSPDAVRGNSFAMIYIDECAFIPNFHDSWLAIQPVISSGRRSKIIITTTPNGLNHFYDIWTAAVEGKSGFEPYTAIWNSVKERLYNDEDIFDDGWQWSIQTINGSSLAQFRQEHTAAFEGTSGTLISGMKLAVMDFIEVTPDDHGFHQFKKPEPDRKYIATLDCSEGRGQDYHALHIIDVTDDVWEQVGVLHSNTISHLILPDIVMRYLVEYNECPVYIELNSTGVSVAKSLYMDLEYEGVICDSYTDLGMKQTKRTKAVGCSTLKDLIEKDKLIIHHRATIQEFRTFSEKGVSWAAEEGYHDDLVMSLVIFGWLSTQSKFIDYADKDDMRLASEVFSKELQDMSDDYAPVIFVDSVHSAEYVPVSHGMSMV

| SMILES | optical tweezers single-DNA grip/slip assay with solution exchange [1] | optical tweezers single-DNA packaging assay [2] |
| --- | --- | --- |
| Nc1ncnc2c1ncn2[C@@H]1O[C@H](COP(=O)(O)OP(=O)(O)O)[C@@H](O)[C@H]1O [ADP] | when ADP is used highly intermittent gripping is observed |  |
| Nc1ncnc2c1ncn2[C@@H]1O[C@H](COP(=O)(O)OP(=O)(O)OP(=O)(O)O)[C@@H](O)[C@H]1O [ATP] |  | In each case the motor restarts when the complex is moved back into ATP |

Source: paper PMC6303390, “Nucleotide-dependent DNA gripping and an end-clamp mechanism regulate the bacteriophage T4 viral packaging motor” (Nature Communications, 2018)
